Assay results published in patent US20250090437A1, “COSMETIC COMPOUNDING AGENT, COSMETIC AND PRODUCTION METHOD THEREOF” (MIYOSHI OIL & FAT CO., LTD., priority 2019, published 2025).

Legend:
[1] = Permeability to skin (horny layer tape stripping method); type: in vivo; conditions: extraction liquid, an hour after application to the arm, HPLC
Method: Skin permeability was evaluated by a horny layer tape stripping method. […] A sample was applied to the arm and then left thereon for an hour before performing tape stripping on the horn by eight layers. An adhered substance on this tape was then extracted with an ion-exchange water over the course of 10 min, followed by filtrating an extraction liquid thus obtained with a 0.2 μm filter, and then quantifying, via HPLC, the amount of each of the compounds C20, C64 and C97 in each extraction liquid filtrated.

keratin = test: Keratin adherability; conditions: 1 g keratin in 2 g of 50 wt % aqueous solution, 25° C., 24 hours
Method: Here, 1 g of a powdery keratin (by Tokyo Chemical Industry Co., Ltd.) (pre-test keratin) was added to 2 g of a 50 wt % aqueous solution of each of the compounds B11, B23, B26 and B27, followed by performing stirring at 25° C. for 24 hours. After stirring, filtration was performed, and a powdery keratin obtained was then dried so as to obtain a keratin that had been treated (post-test keratin).
A rate of compound adhesion to keratin was calculated with the following formula.

[2] = Sensory evaluation on healthy hair after using conditioner containing organic ammonium salt; parameters: species or system human; conditions: conditioner containing 3.0% by mass of the compound
Method: Here, 4.5% by mass of a stearyl alcohol (KALCOL 8688 by Kao Corporation), 2.0% by mass of a behenyl alcohol (KALCOL 220-80 by Kao Corporation) and 0.5% by mass of a phenoxyethanol (Hisolve EPH by TOHO Chemical Industry Co., Ltd.) were mixed together and heated to 75° C. to obtain a liquid A. Further, 3.0% by mass of a behentrimonium chloride (CATINAL DC-80 by TOHO Chemical Industry Co., Ltd.), 5.0% by mass of dipropylene glycol and 3.0% by mass of each of the compounds B11, B23, B26, B27 and B28 (content in terms of anhydride in the cases of the compounds B11 and B23) were added together, followed by adding a purified water thereto, and then melting them at 80° C., thus obtaining a liquid B. The liquid B was then gradually added to the liquid A, and stirring was performed at 75° C. for 20 min. Next, the mixture was cooled to a temperature of 40° C. or lower, and a purified water of an evaporated amount was then added thereto so that the whole hair treatment composition would be 100% by mass, followed by uniformly mixing them so as to obtain a hair treatment composition(s).
About 5 g of the healthy hair was dipped into and kept immersed in 150 g of a seven-time dilute aqueous solution of each of the abovementioned hair treatment compositions (conditioners) at 40° C. for 30 min. […] After air drying, a combing capability, cohesiveness and non-stickiness of the hair were evaluated.

[3] = Sensory evaluation on healthy hair after using organic ammonium salt; parameters: species or system human; conditions: healthy hair, 80 wt % aqueous solution
[4] = Sensory evaluation on damaged hair after using organic ammonium salt; parameters: species or system human; conditions: damaged hair, 80 wt % aqueous solution

OCC(O)CO [Compound A52, glycerin, reference compound]
Compound concentration ([1]; Tape stripping layer 1): 0.030 ml/L
Compound concentration ([1]; Tape stripping layer 2): 0.014 ml/L
Compound concentration ([1]; Tape stripping layer 3): 0.009 ml/L
Compound concentration ([1]; Tape stripping layer 4): 0.009 ml/L
Compound concentration ([1]; Tape stripping layer 5): 0.008 ml/L
Compound concentration ([1]; Tape stripping layer 6): 0.006 ml/L
Compound concentration ([1]; Tape stripping layer 7): 0.006 ml/L
Compound concentration ([1]; Tape stripping layer 8): 0.006 ml/L
Rate of compound adhesion to keratin (keratin): 11.0%
Combing capability, cohesiveness and non-stickiness of healthy hair after conditioner [2]: slightly inferior
After air drying: Cohesiveness of hair [3]: Δ~X
After air drying: Elasticity/Resilience [3]: Δ~X
After air drying: Finger-combing capability [3]: Δ~X
After air drying: Flexibility [3]: Δ~X
After air drying: Gloss of hair [3]: Δ~X
After air drying: Moist feeling [3]: Δ~X
After air drying: Non-stickiness of hair surface [3]: Δ~X
After air drying: Smoothness of hair surface [3]: Δ~X
After air drying: Texture [3]: Δ~X
After air drying: Volume increase [3]: Δ~X
When washing: Finger-combing capability ([3]; versus uncoated hair bundle): ◯
After air drying: Cohesiveness of hair [4]: Δ~X
After air drying: Elasticity/Resilience [4]: Δ~X
After air drying: Smoothness of hair surface [4]: Δ~X
After air drying: Suppression of hair waviness [4]: Δ~X
When washing: Finger-combing capability [4]: Δ~X
